Reference: US20230270772A1, “USE OF 5'-METHYLTHIOADENOSINE IN PREPARATION OF OBESITY-SUPPRESSING DRUGS OR HEALTH CARE PRODUCTS” (Zhejiang Chinese Medical University, priority 2022, published 2023)

Tests used:
[1] = system: high-fat diet-induced obesity in C57/BL mice; assay: Comparison of MTA and adenosine in suppressing high-fat diet-induced obesity; format: in vivo; conditions: 8-week-old C57BL/6 mice, tube-feeding 100 mg/kg/day, FIG. 2A-2D
From the text: Experimental animals: 8-week-old C57BL/6 mice; Diets and drugs: low-fat diet (10% kcal as fat, product #D12450J, Research Diets), high-fat diet (60% kcal as fat, product #D12492, Research Diets), MTA, and adenosine.

[2] = system: high-fat diet-induced obesity in C57BL/6 mice; assay: Suppression of high-fat diet-induced obesity, gavage for 11 weeks; format: in vivo; conditions: 50 and 100 mg/kg/day by gavage
Method: (§1) Eight-week-old C57BL/6 mice were divided into three groups (a control group, a model group, and a drug-treated group). The mice of control group were fed with a low-fat diet, the mice of model group were fed with a high-fat diet, and the mice of drug-treated group were fed with high-fat diet+5′-methylthioadenosine (50 and 100 mg/kg/day) by gavage for 11 weeks, during which the body weight of the mice was recorded, and OGTT and ITT thereof were conducted.

[3] = system: high-fat diet-induced obesity in C57BL/6 mice; assay: Suppression of high-fat diet-induced obesity, gavage for 9 weeks; format: in vivo; conditions: 100 mg/kg/day by gavage
Method: as §1, with “group) (FIG. 4A).” for “group).”, “diet, and” for “diet,”, “diet ad libitum. The” for “diet, and the”, “(100” for “(50 and 100”, “9” for “11”

HepG2 hepatoma cells = assay: Suppression of uric acid-induced lipogenesis in HepG2 hepatoma cells (oil red staining); format: cell-based; conditions: uric acid 120 μg/mL + 0.05, 0.1, 0.5, 1.0 and 5.0 μg/mL for 24 h, FIG. 3
Method: HepG2 hepatoma cells were induced to synthesize fat by uric acid (120 μg/mL). After 24 h, the cells were divided into two groups for testing. The cells of model group continued to be induced with uric acid (120 μg/mL) for 24 h.

Structure (SMILES)	obesity-suppressing effect (body weight, liver weight, subcutaneous and visceral fat weight) [1]	high-fat diet-induced obesity (body weight) ([2]; FIG. 5A, 5B)	oral glucose tolerance and insulin tolerance (OGTT, ITT) ([2]; FIG. 5G-5J)	liver lipogenesis and gains of subcutaneous and visceral fats (perirenal, testicular) ([2]; after sacrifice, FIG. 5C-5F)	high-fat diet-induced obesity (body weight) ([3]; FIG. 4B)	oral glucose tolerance and insulin tolerance (OGTT, ITT) ([3]; FIG. 4H, 4I)	liver lipogenesis and gains of subcutaneous and visceral fats ([3]; after sacrifice, FIG. 4C-4G)	uric acid-induced lipogenesis (amount of synthetic fat, oil red staining) (HepG2 hepatoma cells)
Nc1ncnc2c1ncn2[C@@H]1O[C@H](CO)[C@@H](O)[C@H]1O [adenosine]	shown to inhibit the body weight and liver weight gains and fat accumulation in mice							
CSC[C@H]1O[C@@H](n2cnc3c(N)ncnc32)[C@H](O)[C@@H]1O [5′-methylthioadenosine, 5′-Methylthioadenosine]	significantly better than that of adenosine	significantly suppressing high-fat diet-induced obesity, with a concentration gradient effect	improving oral glucose tolerance and insulin tolerance in mice	suppressing the liver lipogenesis and the gains of subcutaneous fats and visceral fats, with a concentration gradient effect	significantly suppressing high-fat diet-induced obesity	improving oral glucose tolerance and insulin tolerance in mice	suppressing the liver lipogenesis and the gains of subcutaneous fats and visceral fats	significantly inhibiting uric acid-induced lipogenesis in HepG2 cells with a concentration gradient effect
